{
  "source": "ChEMBL document CHEMBL5661980",
  "about": "“Discovery of OSI-906: a selective and orally efficacious dual inhibitor of the IGF-1 receptor and insulin receptor” (Future Med Chem, 2009)",
  "key": {"[1]": {"experiment": "AUC last in CD-1 mouse measured at 25 mg/kg, po for 1 to 24 hrs by HPLC-MS/MS analysis", "assay_type": "ADME, organism-based", "conditions": "in vivo, time 1-24 hrs"}, "[2]": {"experiment": "Cmax in Beagle dog measured at 5 mg/kg, po for 1 to 24 hrs by HPLC-MS/MS analysis", "assay_type": "ADME, organism-based, Canis lupus familiaris", "conditions": "in vivo, time 1-24 hrs"}, "[3]": {"experiment": "Volume of distribution at steady state in Sprague-Dawley rat measured at 5 mg/kg, iv for 1 to 24 hrs by HPLC-MS/MS analysis", "assay_type": "ADME, organism-based", "conditions": "in vivo, time 1-24 hrs, read-out: Vdss"}, "[4]": {"experiment": "Plasma concentration in CD-1 mouse measured at 75 mg/kg, po for 24 hrs by HPLC-MS/MS analysis", "assay_type": "ADME, organism-based"}, "[5]": {"experiment": "AUC last in Sprague-Dawley rat measured at 100 mg/kg, po for 1 to 24 hrs by HPLC-MS/MS analysis", "assay_type": "ADME, organism-based", "conditions": "in vivo, time 1-24 hrs"}, "[6]": {"experiment": "In vivo inhibition of IGF-1R phosphorylation in athymic nu/nu CD-1 mouse allografted with mouse 3T3 cells expressing human IGF-1R at 75 mg/kg, po measured after 4 to 24 hrs relative to control", "assay_type": "functional", "conditions": "nu/nu CD-1, NIH3T3, time 4-24 hrs"}, "[7]": {"experiment": "Toxicity in athymic nu/nu CD-1 mouse allografted with mouse 3T3 cells expressing human IGF-1R assessed as hyperglycemia at 75 mg/kg, po for 12 days", "assay_type": "organism-based, NIH3T3", "conditions": "in vivo, 288 h, time 12 day"}, "[8]": {"experiment": "Oral bioavailability in CD-1 mouse measured at 250 mg/kg for 1 to 24 hrs by HPLC-MS/MS analysis", "assay_type": "ADME, organism-based", "conditions": "in vivo, time 1-24 hrs"}, "[9]": {"experiment": "Oral bioavailability in CD-1 mouse measured at 25 mg/kg for 1 to 24 hrs by HPLC-MS/MS analysis", "assay_type": "ADME, organism-based", "conditions": "in vivo, time 1-24 hrs"}, "[10]": {"experiment": "Cmax in CD-1 mouse measured at 75 mg/kg, po for 1 to 24 hrs by HPLC-MS/MS analysis", "assay_type": "ADME, organism-based", "conditions": "in vivo, time 1-24 hrs"}, "Cytochrome P450 2D6": {"target": "Cytochrome P450 2D6 (Homo sapiens, UniProt P10635)", "sequence (P10635 whole entry)": "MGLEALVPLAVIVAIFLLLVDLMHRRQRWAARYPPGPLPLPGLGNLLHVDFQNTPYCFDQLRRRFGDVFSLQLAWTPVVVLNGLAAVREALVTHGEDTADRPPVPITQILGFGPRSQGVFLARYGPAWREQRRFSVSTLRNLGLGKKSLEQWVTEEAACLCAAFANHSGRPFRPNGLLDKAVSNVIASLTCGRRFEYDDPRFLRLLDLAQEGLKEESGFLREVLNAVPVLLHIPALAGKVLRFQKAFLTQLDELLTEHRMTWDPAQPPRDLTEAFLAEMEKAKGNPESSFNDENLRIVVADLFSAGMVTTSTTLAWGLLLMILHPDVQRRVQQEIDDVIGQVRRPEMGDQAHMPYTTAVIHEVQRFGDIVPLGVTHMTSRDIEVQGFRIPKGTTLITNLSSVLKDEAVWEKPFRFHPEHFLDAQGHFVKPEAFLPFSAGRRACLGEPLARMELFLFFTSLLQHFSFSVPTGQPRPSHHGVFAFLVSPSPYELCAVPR", "experiment": "Inhibition of CYP2D6 (unknown origin) in presence of NADPH generating system incubated for 20 mins by luminescent method", "assay_type": "ADME"}, "[11]": {"experiment": "AUC last in CD-1 mouse measured at 5 mg/kg, po for 1 to 24 hrs by HPLC-MS/MS analysis", "assay_type": "ADME, organism-based", "conditions": "in vivo, time 1-24 hrs"}, "[12]": {"experiment": "Elimination half life in Beagle dog measured at 2.5 mg/kg, iv for 1 to 24 hrs by HPLC-MS/MS analysis", "assay_type": "ADME, organism-based, Canis lupus familiaris", "conditions": "in vivo, time 1-24 hrs, read-out: beta t1/2 (converted)"}, "[13]": {"experiment": "Oral bioavailability in CD-1 mouse measured at 5 mg/kg for 1 to 24 hrs by HPLC-MS/MS analysis", "assay_type": "ADME, organism-based", "conditions": "in vivo, time 1-24 hrs"}, "NIH3T3 [14]": {"tested_on": "NIH3T3", "experiment": "Antitumor activity against mouse 3T3 cells allografted in athymic nu/nu CD-1 mouse assessed as tumor growth inhibition at 75 mg/kg, po for 12 days relative to control", "assay_type": "functional", "conditions": "NIH3T3, 288 h, time 12 day, read-out: TGI"}, "[15]": {"experiment": "Oral bioavailability in Sprague-Dawley rat measured at 12.5 mg/kg for 1 to 24 hrs by HPLC-MS/MS analysis", "assay_type": "ADME, organism-based", "conditions": "in vivo, time 1-24 hrs"}, "[16]": {"experiment": "Elimination half life in CD-1 mouse measured at 5 mg/kg, iv for 1 to 24 hrs by HPLC-MS/MS analysis", "assay_type": "ADME, organism-based", "conditions": "in vivo, time 1-24 hrs, read-out: beta t1/2 (converted)"}, "[17]": {"experiment": "Cmax in Sprague-Dawley rat measured at 100 mg/kg, po for 1 to 24 hrs by HPLC-MS/MS analysis", "assay_type": "ADME, organism-based", "conditions": "in vivo, time 1-24 hrs"}, "[18]": {"experiment": "Oral bioavailability in Sprague-Dawley rat measured at 100 mg/kg for 1 to 24 hrs by HPLC-MS/MS analysis", "assay_type": "ADME, organism-based", "conditions": "in vivo, time 1-24 hrs"}, "[19]": {"experiment": "Clearance in Beagle dog measured at 2.5 mg/kg, iv for 1 to 24 hrs by HPLC-MS/MS analysis", "assay_type": "ADME, organism-based, Canis lupus familiaris", "conditions": "in vivo, time 1-24 hrs"}, "[20]": {"experiment": "Plasma concentration in athymic nu/nu CD-1 mouse allografted with mouse 3T3 cells expressing human IGF-1R at 75 mg/kg, po measured after 24 hrs", "assay_type": "ADME, organism-based, NIH3T3"}, "Cytochrome P450 1A2": {"target": "T1, Cytochrome P450 1A2 (Homo sapiens, UniProt P05177)", "T1 sequence (P05177 whole entry)": "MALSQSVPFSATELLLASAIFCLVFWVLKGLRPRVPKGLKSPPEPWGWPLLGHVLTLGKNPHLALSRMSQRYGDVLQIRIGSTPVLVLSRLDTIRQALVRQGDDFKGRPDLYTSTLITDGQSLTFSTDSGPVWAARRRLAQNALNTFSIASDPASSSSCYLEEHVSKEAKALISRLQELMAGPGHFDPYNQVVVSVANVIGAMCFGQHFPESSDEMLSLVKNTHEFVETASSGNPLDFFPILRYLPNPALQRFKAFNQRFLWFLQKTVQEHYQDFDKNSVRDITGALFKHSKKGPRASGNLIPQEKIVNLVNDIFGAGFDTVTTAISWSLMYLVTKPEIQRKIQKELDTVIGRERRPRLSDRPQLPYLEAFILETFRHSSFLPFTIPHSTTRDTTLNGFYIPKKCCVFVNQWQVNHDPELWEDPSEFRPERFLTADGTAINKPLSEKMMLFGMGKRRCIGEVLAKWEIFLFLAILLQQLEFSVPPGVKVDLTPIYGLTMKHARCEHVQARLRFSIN", "experiment": "Inhibition of CYP1A2 (unknown origin) in presence of NADPH generating system incubated for 20 mins by luminescent method", "assay_type": "ADME"}, "NIH3T3 [21]": {"tested_on": "NIH3T3", "experiment": "Antitumor activity against mouse 3T3 cells allografted in athymic nu/nu CD-1 mouse assessed as tumor regression at 75 mg/kg, po for 12 days relative to control", "assay_type": "functional", "conditions": "time 12 day"}, "[22]": {"experiment": "Toxicity in athymic nu/nu CD-1 mouse allografted with mouse 3T3 cells expressing human IGF-1R assessed as loss in body weight at 25 mg/kg, po for 12 days relative to control", "assay_type": "organism-based, NIH3T3", "conditions": "in vivo, 288 h, time 12 day"}, "[23]": {"experiment": "Volume of distribution at steady state in CD-1 mouse measured at 5 mg/kg, iv for 1 to 24 hrs by HPLC-MS/MS analysis", "assay_type": "ADME, organism-based", "conditions": "in vivo, time 1-24 hrs, read-out: Vdss"}, "[24]": {"experiment": "AUC last in Beagle dog measured at 5 mg/kg, po for 1 to 24 hrs by HPLC-MS/MS analysis", "assay_type": "ADME, organism-based, Canis lupus familiaris", "conditions": "in vivo, time 1-24 hrs"}, "[25]": {"experiment": "AUC last in CD-1 mouse measured at 250 mg/kg, po for 1 to 24 hrs by HPLC-MS/MS analysis", "assay_type": "ADME, organism-based", "conditions": "in vivo, time 1-24 hrs"}, "[26]": {"experiment": "Cmax in CD-1 mouse measured at 250 mg/kg, po for 1 to 24 hrs by HPLC-MS/MS analysis", "assay_type": "ADME, organism-based", "conditions": "in vivo, time 1-24 hrs"}, "[27]": {"experiment": "AUC (0 to infinity) in Beagle dog measured at 2.5 mg/kg, iv for 1 to 24 hrs by HPLC-MS/MS analysis", "assay_type": "ADME, organism-based, Canis lupus familiaris", "conditions": "in vivo, time 1-24 hrs"}, "[28]": {"experiment": "Cmax in Sprague-Dawley rat measured at 12.5 mg/kg, po for 1 to 24 hrs by HPLC-MS/MS analysis", "assay_type": "ADME, organism-based", "conditions": "in vivo, time 1-24 hrs"}, "[29]": {"experiment": "Volume of distribution at steady state in Beagle dog measured at 2.5 mg/kg, iv for 1 to 24 hrs by HPLC-MS/MS analysis", "assay_type": "ADME, organism-based, Canis lupus familiaris", "conditions": "in vivo, time 1-24 hrs, read-out: Vdss"}, "[30]": {"experiment": "Toxicity in athymic nu/nu CD-1 mouse allografted with mouse 3T3 cells expressing human IGF-1R assessed as loss in body weight at 75 mg/kg, po for 12 days relative to control", "assay_type": "organism-based, NIH3T3", "conditions": "in vivo, 288 h, time 12 day"}, "[31]": {"experiment": "AUC last in CD-1 mouse measured at 75 mg/kg, po for 1 to 24 hrs by HPLC-MS/MS analysis", "assay_type": "ADME, organism-based", "conditions": "in vivo, time 1-24 hrs"}},
  "data": [
    {"smiles": "C[C@]1(O)C[C@@H](c2nc(-c3ccc4ccc(-c5ccccc5)nc4c3)c3c(N)nccn32)C1", "note": "[LINSITINIB]", "values": [
      {"measurement": "AUC(0-t)", "setting": "[1]", "result": 26700, "unit": "ng·h/mL"},
      {"measurement": "Cmax", "setting": "[2]", "result": 1.2, "unit": "µM"},
      {"measurement": "Vd", "setting": "[3]", "result": 0.79, "unit": "L/kg"},
      {"measurement": "concentration at 24 h", "setting": "[4]", "result": 2.92, "unit": "µM"},
      {"measurement": "AUC(0-t)", "setting": "[5]", "result": 424000, "unit": "ng·h/mL"},
      {"measurement": "inhibition in vivo at 75 mg/kg", "setting": "[6]", "result": 80, "unit": "%"},
      {"measurement": "Activity", "setting": "[7]", "result": "Toxic"},
      {"measurement": "bioavailability", "setting": "[8]", "result": "> 100", "unit": "%"},
      {"measurement": "bioavailability", "setting": "[9]", "result": 100, "unit": "%"},
      {"measurement": "Cmax", "setting": "[10]", "result": 16.8, "unit": "µM"},
      {"measurement": "IC50", "setting": "Cytochrome P450 2D6", "result": "> 10", "unit": "µM"},
      {"measurement": "AUC(0-t)", "setting": "[11]", "result": 6770, "unit": "ng·h/mL"},
      {"measurement": "half-life", "setting": "[12]", "result": 1.18, "unit": "h"},
      {"measurement": "bioavailability", "setting": "[13]", "result": 98, "unit": "%"},
      {"measurement": "inhibition in vivo at 75 mg/kg", "setting": "NIH3T3 [14]", "result": 100, "unit": "%"},
      {"measurement": "bioavailability", "setting": "[15]", "result": 74, "unit": "%"},
      {"measurement": "half-life", "setting": "[16]", "result": 2.14, "unit": "h"},
      {"measurement": "Cmax", "setting": "[17]", "result": 34.6, "unit": "µM"},
      {"measurement": "bioavailability", "setting": "[18]", "result": 92, "unit": "%"},
      {"measurement": "clearance", "setting": "[19]", "result": 39, "unit": "mL/min/kg"},
      {"measurement": "concentration at 24 h", "setting": "[20]", "result": 4.77, "unit": "µM"},
      {"measurement": "IC50", "setting": "Cytochrome P450 1A2", "result": "> 10", "unit": "µM"},
      {"measurement": "Activity", "setting": "NIH3T3 [21]", "result": 55, "unit": "%"},
      {"measurement": "Activity", "setting": "[22]", "result": "< 10", "unit": "%"},
      {"measurement": "Vd", "setting": "[23]", "result": 2.05, "unit": "L/kg"},
      {"measurement": "AUC(0-t)", "setting": "[24]", "result": 1330, "unit": "ng·h/mL"},
      {"measurement": "AUC(0-t)", "setting": "[25]", "result": 317000, "unit": "ng·h/mL"},
      {"measurement": "Cmax", "setting": "[26]", "result": 42, "unit": "µM"},
      {"measurement": "AUC(0-inf)", "setting": "[27]", "result": 1070, "unit": "ng·h/mL"},
      {"measurement": "Cmax", "setting": "[28]", "result": 10, "unit": "µM"},
      {"measurement": "Vd", "setting": "[29]", "result": 4.3, "unit": "L/kg"},
      {"measurement": "Activity", "setting": "[30]", "result": 16, "unit": "%"},
      {"measurement": "AUC(0-t)", "setting": "[31]", "result": 87500, "unit": "ng·h/mL"}
    ]}
  ]
}
